Results on 14 molecules are retold here after publication PMC9743128, “Phenotype-based screening rediscovered benzopyran-embedded microtubule inhibitors as anti-neuroinflammatory agents by modulating the tubulin–p65 interaction” (Experimental & Molecular Medicine, 2022).

pIC50: −log10 of the molar value. Where two headings read alike, the source gives them in different places.

Data set [1] concerns TNF-α secretion in BV-2 cells. The data set is described as follows: TNF-α ELISA of culture medium after LPS. The data set is classed as cell-based, murine. As to conditions: 10 μM. The method, then:
BV-2 and RAW264.7 cells were treated with compounds in the absence or presence of LPS (100 ng/ml). After 24 h, TNF-α levels in the culture medium were measured using a TNF-α ELISA kit (R&D Systems; DY410) according to the manufacturer’s protocol. Briefly, capture antibodies were coated on 96-well Maxisorp Nunc-Immuno plates (Thermo; #439454) for 1 h and washed with PBS containing 0.05% Tween-20 (PBST) three times. The plates were blocked with 1% BSA-PBS for 1 h and washed with PBST three times. Culture medium was added to the 96-well plate for 1 h and washed with PBST three times. Biotinylated detection antibody was added to the 96-well plate for 1 h and washed with PBST three times. Streptavidin–horseradish peroxidase (HRP) was added to the plate for 20 min and washed with PBST three times. After 20 min of incubation with TMB substrate (Thermo; #002023), TMB oxidation was stopped by adding 2 N H2SO4. The absorbance at 450 nm, 540 nm, and 570 nm was measured using a microplate reader (BioTek; Synergy). The following formula was used to calculate the net signal: OD450nm–(OD540nm + OD570nm)/2.
Fig. 2 SB26019 has anti-inflammatory activity via the accumulation of tubulin monomers. SB26019 (10 μM for 6 h) regulated the mRNA levels (a) and protein levels (b) of downstream genes of NF-κB in BV-2 murine microglial cells more efficiently than the other known tubulin modulators (n = 3). c Both tubulin modulators (10 μM for 6 h) and transient Flag-tagged α-tubulin overexpression increased the total amount of tubulin monomers. d Quantification of the amount of tubulin polymer vs. monomer in (c). Tubulin modulators (10 μM for 6 h) and transient Flag-tagged α-tubulin overexpression proportionally regulated the NF-κB signaling pathway at the mRNA (e) and protein levels f in RAW264.7 murine macrophage cells (n = 3). Data are presented as the mean ± SD (ns, not significant, p > 0.05; *p < 0.05; **p < 0.01; ***p < 0.001).
(In general: In an ELISA, binding on a coated surface is turned into a signal by an enzyme label.)

For data set [2], the system named is p65 nuclear translocation in J774A.1 and RAW264.7 cells. Description: p65 nuclear translocation by immunofluorescence staining. Type of data set: cell-based, murine. As to conditions: 10 μM for 1 h, then LPS; LPS alone 80%, basal 40%. The method, then:
To monitor p65 translocation, J774A.1 cells were treated with compounds for 1 h, followed by LPS (100 ng/ml) treatment for 30 min. The cells were fixed with 4% paraformaldehyde (Sigma; #158127) in PBS (w/v) for 30 min at room temperature. After washing with 1× PBS (Welgene; ML008-02) three times, the fixed cells were permeabilized with PBS containing 0.1% Triton X-100 for 10 min. The cells were washed with 1× PBS three times and then blocked with 4% bovine serum albumin (MP Biomedicals; #0216006980) in PBS (w/v) for 1 h. The cells were incubated with mouse anti-p65 antibody (Santa Cruz; sc-8008, 1:200 diluted in 1% BSA–PBS) at 4 °C overnight and washed with PBS three times. FITC-labeled goat anti-mouse IgG antibody (Abcam; ab6785, 1:200 diluted in 1% BSA–PBS) was added to the sample and incubated for 1 h at room temperature. The remaining antibodies were finally washed three times with PBS. Nuclei were stained with Hoechst 33342 (Thermo; #62249). The cellular p65 proteins were imaged by fluorescence microscopy (GE Healthcare; Delta Vision) and quantified by the line profiling method.
During activation of the NF-κB signaling pathway, IκB is phosphorylated and degraded by proteasomes. The released p65 from IκB is translocated to the nucleus, inducing the transcription of target genes for inflammatory responses. Therefore, we monitored the translocation of p65 upon SB26019 treatment in J774A.1 and RAW264.7 murine macrophage cells stained with fluorescently labeled antibodies. […]

Data set [3] can be described thus: in vitro. As to conditions: mouse.
Description: (§1) A total of 40,000 cells were seeded on a 96-well plate and incubated for 18 h. After 6-, 12- and 24-h compound treatment, 10 μL of EZ-Cytox solution (Dogen; EZ-BULK150) was added to the 96-well plate. After 30 min, the absorbance at 455 nm was measured using a microplate reader (BioTek; Synergy).
(§2) (n=6). Data are presented as the mean ± SD.
Data set [4] concerns LPS-mediated NO release in BV-2 microglial cells. Description: Griess assay: cellular NO release after LPS treatment. The data set is classed as cell-based, murine. Conditions: for pIC50: 100 ng/mL LPS, 24 h. The method, then:
Cellular secretion of nitric oxide (NO) was quantified with the Griess assay. BV-2 cells were seeded on a clear flat bottom TC-treated 96-well plate (Corning; #3598) and sealed with breathable sealing tape (Axygen; BF-400-S). After 18 h, BV-2 cells were treated with compounds in the absence or presence of 100 ng/mL LPS (Sigma; L4391). After 24 h, 50 μL of the cell culture media was mixed with the same volume of Griess reagent {0.1% naphthylethylenediamine dihydrochloride (Sigma; #222488) and 1% sulfanilamide (Sigma; S9251) in 4% phosphoric acid (Daejung; #6532-4405)}. Absorbance at 550 nm was measured using a microplate reader (BioTek; Synergy). Sodium nitrite (Alfa Aesar; A18668) was used for standard curve generation.
Microglia are tissue-resident macrophages involved in CNS immunosurveillance[3],[39]. Microglial activation induces proinflammatory cytokine tumor necrosis factor α (TNF-α) expression, resulting in neural toxicity[5],[6]. Therefore, the inhibition of microglial activation is critical for regulating neuroinflammation. To discover anti-neuroinflammatory NCEs, we monitored the cellular release of nitric oxide (NO) in response to lipopolysaccharide (LPS) treatment as a mimic of pathogenic activation of innate immune systems upon compound treatment in BV-2 cells using the Griess assay.

Data set [5] in a line: Cell viability assay (EZ-Cytox). As to conditions: mouse, BV-2 microglial cells.
Description: as §1, §2
In data set [6] the target is T1, tubulin (Homo sapiens, UniProt P07437+P68363).
T1 construct: endogenous in cells
T1 sequence (P07437 whole entry): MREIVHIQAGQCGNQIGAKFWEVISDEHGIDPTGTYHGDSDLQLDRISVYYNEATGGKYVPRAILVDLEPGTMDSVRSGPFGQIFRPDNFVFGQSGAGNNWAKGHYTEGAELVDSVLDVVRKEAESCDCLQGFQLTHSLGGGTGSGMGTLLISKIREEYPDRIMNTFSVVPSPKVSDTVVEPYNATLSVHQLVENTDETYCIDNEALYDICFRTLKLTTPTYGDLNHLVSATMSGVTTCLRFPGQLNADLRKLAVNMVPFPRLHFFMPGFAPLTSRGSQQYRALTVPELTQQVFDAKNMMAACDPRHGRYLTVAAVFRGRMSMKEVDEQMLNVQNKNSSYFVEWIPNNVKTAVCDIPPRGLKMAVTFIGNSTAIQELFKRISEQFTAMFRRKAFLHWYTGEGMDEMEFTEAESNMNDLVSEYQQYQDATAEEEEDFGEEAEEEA
T1 sequence (P68363 whole entry): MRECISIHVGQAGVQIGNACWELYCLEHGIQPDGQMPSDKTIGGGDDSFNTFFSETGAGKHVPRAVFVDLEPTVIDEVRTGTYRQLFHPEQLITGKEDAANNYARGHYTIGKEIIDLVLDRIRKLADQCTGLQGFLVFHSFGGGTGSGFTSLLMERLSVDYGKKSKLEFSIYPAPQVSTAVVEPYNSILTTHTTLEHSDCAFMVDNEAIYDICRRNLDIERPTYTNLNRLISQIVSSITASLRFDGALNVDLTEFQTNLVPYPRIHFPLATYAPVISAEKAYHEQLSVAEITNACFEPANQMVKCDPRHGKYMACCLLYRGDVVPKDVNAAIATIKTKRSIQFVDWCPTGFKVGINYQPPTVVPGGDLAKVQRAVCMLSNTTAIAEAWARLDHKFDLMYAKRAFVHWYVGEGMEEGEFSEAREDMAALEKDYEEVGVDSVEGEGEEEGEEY
The data set is described as follows: Cellular thermal shift assay (CETSA). Type of data set: cell-based.

The subject of data set [7] is BV-2 cells. The data set is described as follows: Cell viability assay (EZ-Cytox). As to conditions: 10 μM.
Description: as §1, §2
For data set [8], the target named is T2, tubulin (Sus scrofa, UniProt P02550+P02554).
T2 construct: purchased Cytoskeleton BK006P
T2 sequence (P02554 whole entry): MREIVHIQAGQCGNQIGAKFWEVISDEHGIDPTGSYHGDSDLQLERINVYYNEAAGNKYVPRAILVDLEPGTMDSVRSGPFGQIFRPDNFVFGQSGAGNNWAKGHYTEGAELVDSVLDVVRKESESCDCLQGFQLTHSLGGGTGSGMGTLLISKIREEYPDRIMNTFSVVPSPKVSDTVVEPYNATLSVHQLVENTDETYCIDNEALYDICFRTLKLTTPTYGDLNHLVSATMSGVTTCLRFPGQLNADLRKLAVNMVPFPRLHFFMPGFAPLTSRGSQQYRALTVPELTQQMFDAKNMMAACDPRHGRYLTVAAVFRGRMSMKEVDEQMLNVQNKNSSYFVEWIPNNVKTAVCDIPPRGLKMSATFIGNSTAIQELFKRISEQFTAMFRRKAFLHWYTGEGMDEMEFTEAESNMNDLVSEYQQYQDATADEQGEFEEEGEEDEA
T2 sequence (P02550 whole entry): as the sequence (P68363 whole entry) above, with L136S, S232G, I265A, S340T, Q358E counted along it
Description: Tubulin polymerization assay. Type of data set: biochemical. Conditions: 1 μM compound. The method, then:
The tubulin polymerization inhibition efficacy of the compounds was measured by a tubulin polymerization assay kit (Cytoskeleton; BK006P) according to the manufacturer’s manual. Absorbance at 340 nm was measured to observe the formation of tubulin polymers using a microplate reader (Biotek; Synergy).
Supplementary Fig. 4. Tubulin polymerization inhibition by compounds 1–13 (1 μM). In the presence or absence of compounds, tubulin was incubated to polymerize at room temperature. Absorbance at 340 nm was measured in a time-dependent manner for monitoring the rate of tubulin polymerization.
Supplementary Table 2. Tubulin polymerization inhibition of the focused library. Tubulin was incubated with each compound (1 μM) and the tubulin polymerization inhibition was monitored. Vmax was calculated from tubulin polymer generation curve data of Supplementary Fig. 3.

Where [9] appears, read: Mus musculus, BV-2 cells, LPS, read-out: % NO inh. at 10 μM.

Turning to `COc1cc2c(c(OC)c1OC)-c1ccc(OC)c(=O)cc1[C@@H](NC(C)=O)CC2` [Colchicine], the “TNF-α levels compared to that of the DMSO control” value in data set [1] was less than 50%. In addition, the “p65 nuclear translocation in the presence of LPS” value in data set [2] is given as less than 60%. In addition, the viability at 10 µM in data set [3] came out at 114%. In data set [4] (setting [9]), the inhibition at 10 µM was 51.8%.
As for `COc1ccc2c(c1O)OC(C)(C)C=C2c1ccc(Cl)cc1C` [Compound 1], in data set [5], the viability at 10 µM is 102%. Further, the inhibition at 10 µM in data set [4] (setting [9]) was 69.4%; in data set [4] (Mus musculus, BV-2 microglial cells, read-out: LPS-mediated NO release inhibited down to) it was 70%. Moreover, the pIC50 in data set [4] (Mus musculus, BV-2 cells) is 5.28. In data set [6], the “Thermal shift of tubulin in CETSA” value is recorded as “slight thermal sensitization”.
On to `COc1ccc2c(c1O)OC(C)(C)C=C2c1ccc(F)cc1C` [Compound 2], for which, in data set [7], the “% Viab. at 10 μM” value is 105.3%. For the same molecule, the “% NO inh. at 10 μM” value in data set [4] (BV-2 cells, LPS) worked out at 65.3%. The pIC50 in data set [4] (BV-2 cells) is 5.23.
The corresponding values for `COc1ccc2c(c1O)OC(C)(C)C=C2c1ccc(F)cc1` [Compound 3] are 88.0%, 9.9% and 4.65.
For the molecule `COc1ccc2c(c1O)OC(C)(C)C=C2c1ccccc1C` [Compound 4], the “% Viab. at 10 μM” value in data set [7] amounted to 106.1%. For the same molecule, in data set [4] (BV-2 cells, LPS), the “% NO inh. at 10 μM” value is 73.3%. Besides, the pIC50 in data set [4] (BV-2 cells) is 5.14.
The corresponding values for `COc1ccc2c(c1O)OC(C)(C)C=C2c1cc(C)ccc1C` [Compound 5] are 99.7%, 46.9% and 5.00.
As to `COc1ccccc1C1=CC(C)(C)Oc2c1ccc(OC)c2O` [Compound 6], the “% Viab. at 10 μM” value in data set [7] is listed as 113.8%. Also, in data set [4] (BV-2 cells, LPS), the “% NO inh. at 10 μM” value is 87.1%. In data set [4] (BV-2 cells), the pIC50 is 5.29.
In the case of `COc1ccc2c(c1O)OC(C)(C)C=C2c1cccc2cccnc12` [Compound 7], the “% Viab. at 10 μM” value in data set [7] was found to be 101.5%. In data set [4] (BV-2 cells, LPS), the “% NO inh. at 10 μM” value amounted to 98.0%. In data set [4] (BV-2 cells), the pIC50 was 5.30.
With `COc1ccc2c(c1O)OC(C)(C)C=C2c1cccc2c1sc1ccccc12` [Compound 9], the “% Viab. at 10 μM” value in data set [7] is 103.6%. Moreover, in data set [4] (BV-2 cells, LPS), the “% NO inh. at 10 μM” value is reported as 90.0%. Further, the pIC50 in data set [4] (BV-2 cells) was 6.00.
With `COc1ccc2c(c1O)OC(C)(C)C=C2c1cccc2c1Sc1ccccc1S2` [Compound 10], the “% Viab. at 10 μM” value in data set [7] was 102.1%. Besides, in data set [4] (BV-2 cells, LPS), the “% NO inh. at 10 μM” value stood at 36.8%. Moreover, the pIC50 in data set [4] (BV-2 cells) is 4.88.
The corresponding values for `COc1ccc2c(c1O)OC(C)(C)C=C2c1cccc(-c2ccccc2)c1` [Compound 11] are 106.1%, 61.6% and 5.17.
On to `CCOC(=O)CCC1(C)C=C(c2ccc(Cl)cc2C)c2ccc(OC)c(O)c2O1` (stereo not drawn) [Compound 12], for which, in data set [7], the “% Viab. at 10 μM” value was determined as 105.6%. For the same molecule, in data set [4] (BV-2 cells, LPS), the “% NO inh. at 10 μM” value stood at 72.3%. Besides, the pIC50 in data set [4] (BV-2 cells) was 5.13.
The corresponding values for `CCOC(=O)CCC1(C)C=C(c2cccc3c2oc2ccccc23)c2ccc(OC)c(O)c2O1` (stereo not drawn) [Compound 13] are 111.4%, 101.2% and 5.75.
Take `COC(=O)Nc1nc2ccc(C(=O)c3cccs3)cc2[nH]1` [Nocodazole, reference compound]: the “TNF-α levels compared to that of the DMSO control” value in data set [1] was less than 50%. Further, the “p65 nuclear translocation in the presence of LPS” value in data set [2] is reported as less than 60%. The viability at 10 µM in data set [5] is 93.8%. The inhibition at 10 µM in data set [4] (setting [9]) was 54.9%. For the same molecule, the pIC50 in data set [4] (Mus musculus, BV-2 cells) was 4.87. Further, the “Vmax of microtubule polymerization compared to DMSO control” value in data set [8] is “reduced Vmax”.

A word on the viability: it is a read-out of living cells in per cent, often relative to untreated cells. By pIC50 is commonly meant the IC50 on a negative log10 scale, so that one unit is a factor of ten.
